Data as given in ChEMBL document CHEMBL3098100, “Synthesis, characterization and anticancer screening of some novel piperonyl-tetrazole derivatives” (2014).
Active and inactive are the calls of the source. No cut-off for these calls is given here.

What was measured:
MCF7 [1] = assay: Decrease of BRAC1 mRNA expression in human ER positive MCF7 cells by RT-PCR analysis relative to control; assay type: functional, cell-based
MCF7 [2] = assay: Decrease of p53 and KRT19 mRNA expression in human ER positive MCF7 cells by RT-PCR analysis relative to control; assay type: functional, cell-based
MDA-MB-231 [3] = assay: Reduction of BAX mRNA expression in human ER negative MDA-MB-231 cells by RT-PCR analysis relative to control; assay type: functional, cell-based
MDA-MB-231 [4] = assay: Decrease of BRAC1 mRNA expression in human ER negative MDA-MB-231 cells by RT-PCR analysis relative to control; assay type: functional
MDA-MB-231 [5] = assay: Decrease of CD44 mRNA expression in human ER negative MDA-MB-231 cells by RT-PCR analysis relative to control; assay type: functional, cell-based
MCF7 [6] = assay: Increase of CD44 mRNA expression in human ER positive MCF7 cells by RT-PCR analysis relative to control; assay type: functional
HepG2 = assay: Cytotoxicity against human HepG2 cells assessed as growth inhibition at 10^-5 M after 48 hrs by MTT assay; assay type: functional; details: HepG2, 48 h, read-out: GI
MCF7 [7] = assay: Reduction of BAX mRNA expression in human ER positive MCF7 cells by RT-PCR analysis relative to control; assay type: functional

Row | SMILES | Activity (MCF7 [1]) | Activity (MCF7 [2]) | Activity (MDA-MB-231 [3]) | fold change (FC) (MDA-MB-231 [4]) | Activity (MDA-MB-231 [5]) | Activity (MCF7 [6]) | inhibition of growth at 10 µM (HepG2) [%] | fold change (FC) (MCF7 [7]) | fold change (FC) (MCF7 [6])
1 | O=C(Cn1nnnc1-c1ccc2c(c1)OCO2)N/N=C/c1cccc([N+](=O)[O-])c1 | Active | Active | Active | 2 | Active | Active | 0 | >2 | –
2 | CCc1ccc(/C=N/NC(=O)Cn2nnnc2-c2ccc3c(c2)OCO3)cc1 | – | – | – | – | – | – | 0 | – | –
3 | O=C(Cn1nnnc1-c1ccc2c(c1)OCO2)N/N=C/c1ccc(Cl)cc1 | – | – | – | – | – | – | 0 | – | –
4 | O=C(Cn1nnnc1-c1ccc2c(c1)OCO2)N/N=C/c1ccccc1Cl | Active | Active | Active | 2 | Active | Active | 0 | >2 | –
5 | O=C(Cn1nnnc1-c1ccc2c(c1)OCO2)N/N=C/c1ccco1 | – | – | – | – | – | – | 0 | – | –
6 | CCOc1ccc(/C=N/NC(=O)Cn2nnnc2-c2ccc3c(c2)OCO3)cc1 | – | – | – | – | – | – | 0 | – | –
7 | O=C(Cn1nnnc1-c1ccc2c(c1)OCO2)N/N=C/c1cccs1 | – | – | – | – | – | – | 0 | – | –
8 | O=C(Cn1nnnc1-c1ccc2c(c1)OCO2)N/N=C/c1ccc([N+](=O)[O-])cc1 | Active | Active | Active | 2 | Active | Active | 0 | >2 | –
9 | O=C(Cn1nnnc1-c1ccc2c(c1)OCO2)N/N=C/c1ccccc1 | – | – | – | – | – | – | 0 | – | –
10 | O=C(Cn1nnnc1-c1ccc2c(c1)OCO2)N/N=C/c1ccccc1[N+](=O)[O-] | Active | Active | Active | 2 | Active | – | 0 | >2 | 2
11 | CCOc1ccccc1/C=N/NC(=O)Cn1nnnc1-c1ccc2c(c1)OCO2 | – | – | – | – | – | – | 0 | – | –
12 | COc1ccc(/C=N/NC(=O)Cn2nnnc2-c2ccc3c(c2)OCO3)cc1 | – | – | – | – | – | – | 0 | – | –
13 | COc1ccc(/C=N/NC(=O)Cn2nnnc2-c2ccc3c(c2)OCO3)c(OC)c1 | Active | Active | Active | 2 | Active | – | 0 | >2 | 2
14 | Cc1ccc(/C=N/NC(=O)Cn2nnnc2-c2ccc3c(c2)OCO3)cc1 | – | – | – | – | – | – | 0 | – | –
